Data published in patent US20100086929A1, “DETECTION OF ANALYTES” (DO-COOP TECHNOLOGIES LTD., priority 2007, published 2010).
Counter-ions that a name gives are not always drawn. One block for each compound: values may come before it. Where no end group is shown, it is not given here.

Experiments:
[1] = Solubilization of peptides in Neowater (Example 9); assay type: physicochemical; conditions: Neowater at 0.5 mM
Procedure: In addition, the effect of the peptides on Skov-3 cells was measured in order to ascertain whether the carrier composition comprising nanostructures influenced the cytotoxic activity of the peptides.
Solubilization: All seven peptides (Peptide X, X-5FU, NLS-E, Palm-PFPSYK (CMFU), […]-NH2, NLS-p2-LHRH, and F-LH-RH-palm kGFPSK) were dissolved in Neowater™ at 0.5 mM. Spectrophotometric measurements were taken.

[2] = Solubilizing CD-Dau, Daunorubicine and t-boc in Neowater (Example 7); assay type: physicochemical
Procedure: Required concentration: 3 mg/ml Neowater.
Properties: The material dissolves in EtOH.
5 different glass vials were prepared: • 1. 5 mg CD-Dau+1.2 ml Neowater™. • 2. 1.8 mg CD-Dau+600 μl acetone. • 3. 1.8 mg CD-Dau+150 μl acetone+450 μl Neowater™ (25% acetone). • 4. 1.8 mg CD-Dau+600 μl 10% *PEG (Polyethylene Glycol). • 5. 1.8 mg CD-Dau+600 μl acetone+600 μl Neowater™. • The samples were vortexed and spectrophotometer measurements were performed on vials #1, 4 and 5 • The vials were left opened in order to evaporate the acetone (vials #2, 3, and 5).
As soon as the acetone was evaporated from solutions #2, 4 and 5, the material sedimented slightly and an additional amount of acetone was added to the vials. This protocol enables the dissolving of the material in the presence of acetone and Neowater™ while at the same time enabling the subsequent evaporation of acetone from the solution (this procedure was performed twice). Following the second cycle the liquid phase was removed from the vile and additional amount of acetone was added to the sediment material. Once the sediment material dissolved it was merged with the liquid phase removed previously. The merged solution was evaporated again. […] Later 1.2 ml of 10% PEG+Neowater™ were added also and after some time the acetone was evaporated from the solution. Finalizing these procedures, the vials were merged to one vial (total volume of 3 ml). On top of this final volume 3 ml of acetone were added in order to dissolve the material and to receive a lucid liquefied solution, which was then evaporated again at 50° C. The solution didn't reach equilibrium due to the fact that once reaching such status the solution would have been separated. By avoiding equilibrium, the material hydration status was maintained and kept as liquid. After the solvent evaporated the material was transferred to a clean vial and was closed under vacuum conditions.
2 mg Daunorubicine+1 ml Neowater™ was prepared in one vial and 2 mg of Daunorubicine+1 ml RO was prepared in a second vial.
1.14 ml of EtOH was added to one glass vial containing 18.5 mg of t-boc (an oily material). This was then divided into two vials and 1.74 ml Neowater™ or RO water was added to the vials such that the solution comprised 25% EtOH. Following spectrophotometer measurements, the solvent was evaporated from the solution and Neowater™ was added to both vials to a final volume of 2.31 ml in each vial. The solutions in the two vials were merged to one clean vial and packaged for shipment under vacuum conditions.

[3] = cited from earlier work
[4] = Solubilization of retinol in Neowater, absorbance and filtration (Example 10); assay type: physicochemical
Procedure: Retinol (vitamin A) was purchased from Sigma (Fluka, 99% HPLC). Retinol was solubilized in Neowater™ under the following conditions. 1% retinol (0.01 gr in 1 ml) in EtOH and Neowater™ 0.5% retinol (0.005 gr in 1 ml) in EtOH and Neowater™ 0.5% retinol (0.125 gr in 25 ml) in EtOH and Neowater™ 0.25% retinol (0.0625 gr in 25 ml) in EtOH and Neowater™. […] Absorbance spectrum of retinol in EtOH: Retinol solutions were made in absolute EtOH, with different retinol concentrations, in order to create a calibration graph; absorbance spectrum was detected in a spectrophotometer. […] Actual concentration of retinol is also unknown since some oil drops are not dissolved in the water. […] The solutions were filtrated in […] filter.

[5] = Solubilization of taxol in DMSO or Neowater with 17% EtOH (Example 13); assay type: physicochemical
Procedure: The following experiments were performed in order to ascertain whether the carrier composition comprising nanostructures was capable of dissolving material taxol (Paclitaxel) at a final concentration of 0.5 mM.
Solubilization: 0.5 mM Taxol solution was prepared (0.0017 gr in 4 ml) in either DMSO or Neowater™ with 17% EtOH. Absorbance was detected with a spectrophotometer.

[6] = Taxol in Neowater by slow solvent exchange, HPLC after storage (Example 16); assay type: physicochemical; conditions: taxol dispersed in Neowater, 6 month storage at −20° C.
Procedure: Solubilization: 0.5 mM Taxol solution was prepared (0.0017 gr in 4 ml). […] At the end of the procedure, less than 40% ethanol remained in the solution, leading to 0.08% of ethanol in the final administered concentration. The solution was sterilized using a 0.2 μm filter. Taxol was separately prepared in DMSO (0.5 mM). Both solutions were kept at −20° C. Absorbance was detected with a spectrophotometer.

Compound: PFPSYKLRPG-NH2
- dissolving [1]: dissolved

Compound: COc1cccc2c1C(=O)c1c(O)c3c(c(O)c1C2=O)C[C@@](O)(C(C)=O)C[C@@H]3O[C@H]1C[C@H](N)[C@H](O)[C@H](C)O1 [Daunorubicine, Cerubidine hydrochloride]
- dissolving ([2]; 2 mg in 1 ml Neowater): dissolves without difficulty
- dissolving ([2]; 2 mg in 1 ml RO): dissolves without difficulty
- solubility in water [3]: known not to dissolve in water

- retinol concentration in EtOH with similar absorbance pattern ([4]; 0.25% retinol in Neowater): ~0.03125%
- retinol in the solutions following filtration ([4]; 0.25% retinol in Neowater, 1.5% EtOH, 0.44 and 0.2 filter): less than 0.03125%
- retinol concentration in EtOH with similar absorbance pattern ([4]; 0.5% retinol in Neowater): ~0.125%
Compound: CC1=C(/C=C/C(C)=C/C=C/C(C)=C/CO)C(C)(C)CCC1 [Retinol]

- dissolving [1]: dissolved
Compound: F-LH-RH-palm kGFPSK

- dissolving ([5]; 0.5 mM in DMSO): dissolved
- dissolving ([5]; 0.5 mM in Neowater with 17% EtOH): dissolved
- structural changes on storage (HPLC) [6]: no structural changes
Compound: CC(=O)O[C@H]1C(=O)[C@@]2(C)[C@H]([C@H](OC(=O)c3ccccc3)[C@]3(O)C[C@H](OC(=O)[C@H](O)[C@@H](NC(=O)c4ccccc4)c4ccccc4)C(C)=C1C3(C)C)[C@]1(OC(C)=O)CO[C@@H]1C[C@@H]2O [Taxol, Paclitaxel]

Compound: Daidzein—daunomycin conjugate [CD-Dau]
- dissolving ([2]; Vial #1, 100% Neowater, 5 mg in 1.2 ml): sedimented after a few hours
- dissolving ([2]; Vial #2, 100% acetone, 1.8 mg in 600 μl): 48 hours later the material sedimented partially
- dissolving ([2]; Vial #3, 25% acetone in Neowater): didn't dissolve very well
- dissolving ([2]; Vial #4, 10% PEG+Neowater): dissolved better than the CD-Dau in vial #1
- dissolving ([2]; Vial #5, acetone then Neowater, acetone evaporated): as the acetone evaporated the material partially sediment to the bottom of the vial
- solubility in water [3]: known not to dissolve in water

- dissolving [1]: dissolved
Compound: Palm-PFPSYK (CMFU)
